Test results: patent publication US10828267B2, “Therapeutic regimens and methods for improving visual function in visual disorders associated with an endogenous retinoid deficiency” (RETINAGENIX THERAPEUTICS, INC., priority 2012, dated 2020)

Test: Interim pharmacokinetics, multiple-dose study (Example 5)
Format: in vivo, human
Method: Interim Pharmacokinetic results of the study were derived from plasma concentrations of 9-cis-retinyl acetate and its metabolites, measured throughout the study period at prescribed time points. The scope of this interim PK analysis encompasses samples from Cohort 1 including the placebo (n=2), 40 mg/m^2 (n=6) and 60 mg/m^2 (n=2) dose groups obtained in treatment cycles 1, 2 and 3.
The plasma samples were analyzed by liquid chromatography-mass spectrometry-mass spectrometry (LC/MS/MS) for parent drug and potential metabolites. Noncompartmental (NCA) pharmacokinetic (PK) parameters such as AUC were obtained using the WinNonlin software with observational determination of Cmax, tmax, and duration of concentrations above baseline (TD).

Q: What does the source list for `CC(=O)OC/C=C(C)/C=C/C=C(C)\C=C\C1=C(C)CCCC1(C)C` [9-cis-Retinyl acetate, (2E, 4E, 6Z, 8E)-3,7-dimethyl-9-(2,6,6-trimethylcyclohex-1-en-1-yl) nona-2,4,6,8-tetraen-1-yl acetate]?
A: accumulation of 9-cis-retinol and retinyl ester metabolites on multiple-dosing (40 mg/m^2, repeated seven day cycles): slight to modest accumulation; accumulation of metabolites from cycle to cycle (40 mg/m^2, Cycles 1, 2 and 3): no accumulation being observed from cycle to cycle; plasma concentrations (Cohort 1, 40 and 60 mg/m^2, cycles 1-3): low and transient
